According to patent publication US9018438B2, “Screening method for anticancer drugs” (Kyoto University, priority 2010, dated 2015):
Structures can show the parent of a compound that is named as a salt. Where two headings read alike, the source gives them in different places.

Columns and labels:
pro-MMP-9 = assay: Gelatin zymography of RM72 culture supernatant, MMP-9; format: cell-based, human; details: RM72 cells; DSF 16 μM, DXR 210 nM, Gra 32 nM, Pyt 5 μM; 48 hours
Procedure: Gelatin zymography with the culture supernatant of RM72 cells treated with DSF, DXR, Gra, Pyt, pDTC, HPM, and DMSO (vehicle) was performed. Specifically, RM72 cells (2×10^4 cells per well) seeded onto 96-well plates were incubated for 24 hours, and the medium was replaced with a medium containing each of the above compounds (DSF: 16 μM, DXR: 210 nM, Gra: 32 nM, Pyt: 5 μM, HPM: 1 μg/ml, pDTC: 20 μM). After incubated for 48 hours, the medium was replaced with 100 μl of DMEM containing 0.1% FBS and incubated for additional 12 hours. The culture supernatant was harvested, cleared of a solid matter by centrifugation, and analyzed by gelatin zymography in accordance with the method described in literature (Takahashi C, Sheng Z, Horan. T P, Kitayama H, Maki M, Hitomi K, Kitaura Y, Takai S, Sasahara R M, Horimoto A, Ikawa Y, Ratzkin B J, Arakawa T, Noda M. Regulation of matrix metalloproteinase-9 and inhibition of tumor invasion by the membrane-anchored glycoprotein RECK. Proc Natl Acad Sci USA 1998; 95: 13221-13226). The band intensities were normalized against the cell number determined by the SF assay.

Reck gene promoter [1] = assay: SEAP assay in YM3 cells (Reck gene promoter-reporter system); format: cell-based, mouse; details: for Activity in Dox: in the presence of Dox (HRAS12V-off); for Induction (fold): relative SEAP activity at optimal conc., YM3 cells, regular medium (Ras-ON)
Procedure: A 4.1-kb upstream region of a mouse Reck gene (Gene ID: 53614, Chromosome 4—NC—000070.5 43884251-43888453) was inserted into a pSEAP2-Basic vector (Clontech) to give a pSEAP-RP4.1 plasmid. […] Biochem Biophys Res Commun 1999; 264: 668-675.). […] TF323-C3 cells can be distributed from one of the inventors Makoto Noda.
YM3 cells were seeded onto 96-well plates at 1×10^4 cells in 100 μl per well and incubation was performed for 5 hours to allow the cells to settle. A compound solution (500 μM, 1 μl) was added to the medium. The employed test compounds were those in the chemical library Prestwick Chemical Library (Prestwick Chemical, Illkirch, France), which is composed of 880 structurally diverse known bioactive compounds, dissolved in nano-pure grade dimethyl sulfoxide (DMSO; Wako). […] A vehicle (DMSO, 1 μl) alone as a negative control and hypothemycin (HPM, 1 mg/ml) as a positive control were added to two wells per plate. Each sample was tested on two different plates (duplicate samples).
After incubation for 48 hours, a portion (10 μl) of the culture supernatant was sampled, incubated at 65° C. (heat treatment) for 30 minutes, and then subjected to the SEAP assay using Great EscAPe™ SEAP Chemiluminescence Detection Kit (Takara Bio). The remaining medium and the cells were subjected to the cell-counting assay using SF reagent. That is, SF reagent (Nacalai) (10 μl per well) was added to the medium, the plates were incubated for 3 hours in a CO2 incubator, and the absorbance at 450 nm (A450) was measured to obtain relative cell numbers. For the SEAP activity data, “SEAP measured value/A450 value” was defined as “SEAP activity per cell”, and the value obtained by dividing “SEAP activity per cell” of each compound by “SEAP activity per cell” of the negative control was defined as “relative SEAP activity”. The mean “relative SEAP activity” of the duplicate samples and the standard error thereof were determined. For the cell number data, the value obtained by dividing the SF measured value of each compound by the SF measured value of the negative control was defined as “relative cell number”, and the mean value of the duplicate samples and the standard error thereof were determined. Samples with a large standard error were tested again. In the experiment, duplicate samples were prepared each in a regular liquid medium and in a liquid medium containing Dox (2 μg/ml), and four mean values (the relative cell number and the relative SEAP activity in the Ras-ON state and the relative cell number and the relative SEAP activity in the Ras-OFF state) were obtained (see FIG. 3).

RM72 cells [2] = format: in vivo; details: for Lung metastasis Mean: relative lung metastasis; for Lung metastasis Mean / Tumor Mean: vehicle = 100; for Tumor Mean: relative tumor size; for anticancer activity / cancer metastasis suppressing activity: summary statement
Procedure: RM72 cells (3×10^6 cells) suspended in 0.1 ml of PBS were subcutaneously injected into the right posterior flank of Balb/c nude mice (6 weeks old, male, Charles River). […]. After 14-day treatment, the mice were anesthetized and their bioluminescence was recorded by the method described below. After the whole-body recording of the bioluminescence, the lung was resected, washed with PBS (−), and subjected to bioluminescence recording. The tumor size (length×width×height) was measured once a week. Statistical significance was assessed by Student's t-test.
Mice under anesthesia were intraperitoneally injected with 75 mg/kg of d-luciferin dissolved in PBS (−). Bioluminescence images were acquired with IVIS ImagingSystem (Xenogen) at 5 minutes after the injection (Wang S, El-Deiry W S. Requirement of p53 targets in chemosensitization of colonic carcinoma to death ligand therapy. Proc Natl Acad Sci USA 2003; 100: 15095-15100; Minn A J, Kang Y, Serganova I, Gupta G P, Giri D D, Doubrovin M, Ponomarev V, Gerald W L, Blasberg R, Massague J. Distinct organ-specific metastatic potential of individual breast cancer cells and primary tumors. J Clin Invest 2005; 115: 44-55). The photons emitted from the whole bodies or the isolated organs were collected for a period of 60 seconds and integrated. The images were analyzed using Living Image software (Xenogen).
The anti-tumorigenic and anti-metastatic activities of Pyt, Hr, Gra and Lyc were investigated with the same protocol as in Example 9. The experiment was conducted in two batches: Experiment 1 for three groups of a Pyt group, a Hr group and a vehicle group and Experiment 2 for three groups of a Gra group, a Lyc group and a vehicle group. The doses of the test compounds were set at two different quantities considered to be appropriate based on literature (see Tables 3 and 4).

endogenous RECK = assay: Endogenous RECK mRNA (RT-PCR) and protein (immunoblotting) expression in RM72 cells; format: cell-based, human; details: 48 hours, Lyc 1.3 μM, Hr 11 μM
Source text: Relative band intensities were obtained by normalization against HPRT1 for the mRNA and against GAPDH for the protein and subsequent division by the normalized value for the cells treated with the vehicle.

RM72 cells [3] = assay: IC30 concentration in RM72 cells; format: cell-based, human
Reck gene promoter [4] = assay: SEAP assay in YM3 cells (Reck gene promoter-reporter system); format: cell-based, mouse; details: determined by dose-response assays (0.0617, 0.185, 0.556, 1.67, 5.00 μM) using YM3 cells

## COc1cccc2c1C(=O)c1c(O)c3c(c(O)c1C2=O)C[C@@](O)(C(=O)CO)C[C@@H]3O[C@H]1C[C@H](N)[C@H](O)[C@H](C)O1 [Doxorubicin hydrochloride]
pro-MMP-9
  pro-MMP-9 level in the culture supernatant: reduced
Reck gene promoter [1]
  Activity in Dox: + (more than 1.9-fold)
  Induction (fold): 8.55 fold

## COc1ccc2c(c1)[nH]c1c(C)nccc12.Cl [Harmine hydrochloride]
RM72 cells [2]; both doses
  anti-metastatic activity: strong
  anti-tumorigenic activity: strong
RM72 cells [2]; 3 mg/kg/day
  Lung metastasis Mean: 22.0
  Tumor Mean: 56.4
RM72 cells [2]; 10 mg/kg/day
  Lung metastasis Mean: 25.7
  Tumor Mean: 47.2
RM72 cells [2]
  anticancer activity: confirmed
  cancer metastasis suppressing activity: confirmed
Reck gene promoter [1]
  Activity in Dox: ± (between 1.9 and 1.5-fold)
  Induction (fold): 2.44 fold
Endogenous RECK
  expression of RECK mRNA: increased the expression
  expression of RECK protein: increased the expression
RM72 cells [3]
  IC30: 11 µM

## Cl.O[C@H]1[C@H]2c3cc4c(cc3CN3CCC(=C[C@@H]1O)[C@H]23)OCO4 [Lycorine hydrochloride]
RM72 cells [2]; both doses
  anti-tumorigenic activity: strong
RM72 cells [2]; high dose
  anti-metastatic activity: strong
RM72 cells [2]; low dose
  anti-metastatic activity: weak
RM72 cells [2]; 2.5 mg/kg/day
  Lung metastasis Mean: 65.5
  Tumor Mean: 69.7
RM72 cells [2]; 7.5 mg/kg/day
  Lung metastasis Mean: 17.7
  Tumor Mean: 70.9
RM72 cells [2]
  anticancer activity: confirmed
  cancer metastasis suppressing activity: confirmed
Reck gene promoter [1]
  Activity in Dox: + (more than 1.9-fold)
  Induction (fold): 3.44 fold
Endogenous RECK
  expression of RECK mRNA: increased the expression
  expression of RECK protein: reduced the expression
RM72 cells [3]
  IC30: 1.3 µM
Reck gene promoter [4]
  Optimal conc.: 5.00 µM

## Gramicidin
pro-MMP-9
  pro-MMP-9 level in the culture supernatant: reduced
RM72 cells [2]; both doses
  anti-metastatic activity: strong
  anti-tumorigenic activity: weak
RM72 cells [2]; 0.03 mg/kg/day
  Lung metastasis Mean: 42.0
  Tumor Mean: 89.3
RM72 cells [2]; 0.1 mg/kg/day
  Lung metastasis Mean: 27.4
  Tumor Mean: 83.1
RM72 cells [2]
  anticancer activity: confirmed
  cancer metastasis suppressing activity: confirmed
Reck gene promoter [1]
  Optimal conc.: 5.00 µM
  Activity in Dox: + (more than 1.9-fold)
  Induction (fold): 7.30 fold
